Measured values as given in PMC12311865, “In Vitro Evaluation of the Potential Interactions of Zearalenone-14-sulfate and Zearalenone-14-glucuronide with Human Cytochrome P450 Enzymes, Organic Anion Transporting Polypeptides, and ATP-Binding Cassette Multidrug Transporters” (ACS Omega, 2025).

Key:
[1] = target: T1, CYP2C9 (Homo sapiens, UniProt P11712); test: in vitro; format: biochemical; details: human, pH 7.5
T1 construct: purchased Merck
Description: Inhibitory actions of ZEN conjugates on CYP2C9 and CYP3A4 enzymes were examined employing CypExpress Cytochrome P450 human kits. , Briefly, incubates (200 μL) contained the substrate (5 μM; diclofenac for CYP2C9 and testosterone for CYP3A4), the CypExpress reagent (6 mg/mL of CYP2C9 kit or 15 mg/mL of CYP3A4 kit; also including the glucose-6-phosphate dehydrogenase enzyme), and the test compounds (each 20 μM) in 0.05 M potassium phosphate buffer (pH 7.5). CYP3A4 assay was supplemented with additional G6P and NADP^+ (both 400 μM). Enzyme assays were started with the addition of the enzyme. After 120 min (CYP2C9) or 180 min (CYP3A4) incubation at 700 rpm and 30 °C in a thermomixer, the reaction was stopped with 100 μL of ice-cold methanol. Then, the samples were centrifuged for 10 min at 14,000g and room temperature. The supernatants were gently removed and directly analyzed by HPLC (see Section ).
Diclofenac and 4′-hydroxydiclofenac (CYP2C9 assay) were quantified using the previously reported HPLC-UV assay, , without modification. Briefly, the isocratic elution, with 1.0 mL/min flow rate, was performed with orthophosphoric acid (6 mM) and acetonitrile (48:52 v/v %) mobile phase, applying a Security Guard (C8, 4.0 × 3.0 mm; Phenomenex, Torrance, CA) precolumn and a Mediterranea Sea8 (C8, 150 × 4.6 mm, 5 μm; Teknokroma, Barcelona, Spain) analytical column at room temperature (injected volume: 20 μL). Diclofenac and 4′-hydroxydiclofenac were detected at 275 nm.

[2] = target: T2, MDR1 (Homo sapiens, UniProt P08183); test: MDR1-mediated NMQ vesicular transport (Sf9 membrane vesicles); format: biochemical; details: human; 30 μM; NMQ 5 μM; read-out: inhibition of MDR1-mediated, ATP-dependent uptake of NMQ
T2 construct: made in house; host or cells: Sf9 insect cells (baculovirus)
T2 sequence (P08183 whole entry): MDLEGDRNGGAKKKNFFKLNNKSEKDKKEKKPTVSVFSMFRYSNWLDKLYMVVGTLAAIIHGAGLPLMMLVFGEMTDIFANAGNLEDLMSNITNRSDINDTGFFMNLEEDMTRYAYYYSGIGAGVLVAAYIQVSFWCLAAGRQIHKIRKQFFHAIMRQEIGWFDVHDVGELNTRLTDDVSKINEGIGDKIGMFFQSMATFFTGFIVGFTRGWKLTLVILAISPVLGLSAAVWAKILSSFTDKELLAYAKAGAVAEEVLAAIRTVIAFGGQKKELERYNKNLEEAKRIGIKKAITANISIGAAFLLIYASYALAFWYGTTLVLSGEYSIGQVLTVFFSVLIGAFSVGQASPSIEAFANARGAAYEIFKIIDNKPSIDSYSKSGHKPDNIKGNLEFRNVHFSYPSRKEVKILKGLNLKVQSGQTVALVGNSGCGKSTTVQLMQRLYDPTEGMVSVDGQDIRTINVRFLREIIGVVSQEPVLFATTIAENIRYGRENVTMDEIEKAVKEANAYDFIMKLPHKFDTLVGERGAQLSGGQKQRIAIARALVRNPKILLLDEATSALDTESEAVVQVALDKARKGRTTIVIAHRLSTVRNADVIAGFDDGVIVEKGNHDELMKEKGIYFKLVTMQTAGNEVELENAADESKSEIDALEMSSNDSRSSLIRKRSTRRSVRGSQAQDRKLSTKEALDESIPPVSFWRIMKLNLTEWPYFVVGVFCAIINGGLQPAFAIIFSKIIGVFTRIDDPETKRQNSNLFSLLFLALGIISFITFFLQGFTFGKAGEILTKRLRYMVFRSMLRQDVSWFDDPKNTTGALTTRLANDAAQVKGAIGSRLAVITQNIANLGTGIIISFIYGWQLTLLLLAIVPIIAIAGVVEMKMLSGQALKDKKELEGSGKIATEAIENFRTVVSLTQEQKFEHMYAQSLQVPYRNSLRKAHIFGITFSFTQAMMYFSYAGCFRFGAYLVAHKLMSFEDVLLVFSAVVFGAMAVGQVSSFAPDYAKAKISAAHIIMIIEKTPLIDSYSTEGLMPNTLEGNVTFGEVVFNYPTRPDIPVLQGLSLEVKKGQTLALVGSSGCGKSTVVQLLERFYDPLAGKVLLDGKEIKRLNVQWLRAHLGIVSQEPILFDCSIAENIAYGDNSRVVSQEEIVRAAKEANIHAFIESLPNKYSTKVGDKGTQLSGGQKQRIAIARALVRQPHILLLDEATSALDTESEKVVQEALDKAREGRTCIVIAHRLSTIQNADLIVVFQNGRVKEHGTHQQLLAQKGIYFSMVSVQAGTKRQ
Description: Experiments were performed in insect membrane vesicles, as described previously. Briefly, human MDR1, BCRP, and MRP2 were expressed in Sf9 insect cells by baculoviruses. On the third day of infection, cells were collected and membrane vesicles were obtained by mechanical disruption and differential centrifugation. To get full activity for BCRP, the cholesterol levels of the vesicles were adjusted to the level of mammalian membranes. Vesicles were stored at −80 °C, and the total protein content of the preparations was measured by the Lowry method (used as a reference for the quantity). […] A 100 μL volume of fluorescence stabilizer was added to the samples (DMSO for LY, 0.1 M H2SO4 for NMQ, and 0.1 M NaOH for CDCF). Fluorescence of samples was measured by plate readers (Victor X3 and Enspire PerkinElmer; Waltham, MA) at appropriate wavelengths (filters in the Victor X3 reader were 405/535 nm for LY and 492/635 nm for CDCF; while in the Enspire reader, NMQ was measured at 360/430 nm excitation/emission wavelengths). ABC-related transport was calculated by subtracting passive uptake measured without Mg-ATP from values measured in the presence of Mg-ATP.

T1 sequence (P11712 whole entry): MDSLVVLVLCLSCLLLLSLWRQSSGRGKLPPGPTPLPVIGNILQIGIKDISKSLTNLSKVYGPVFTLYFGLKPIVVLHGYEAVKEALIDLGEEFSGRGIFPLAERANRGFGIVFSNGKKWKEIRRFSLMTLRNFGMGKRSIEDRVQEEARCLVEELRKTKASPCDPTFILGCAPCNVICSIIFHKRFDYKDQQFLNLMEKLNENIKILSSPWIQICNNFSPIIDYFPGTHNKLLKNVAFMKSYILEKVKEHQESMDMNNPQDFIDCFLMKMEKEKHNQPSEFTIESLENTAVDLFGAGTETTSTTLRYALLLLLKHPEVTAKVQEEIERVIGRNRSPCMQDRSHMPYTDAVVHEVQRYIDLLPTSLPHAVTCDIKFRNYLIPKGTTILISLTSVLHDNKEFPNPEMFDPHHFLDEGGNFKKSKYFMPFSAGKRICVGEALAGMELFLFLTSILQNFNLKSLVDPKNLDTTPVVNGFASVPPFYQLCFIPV

| Compound | inhibition of CYP2C9 (decrease in metabolite formation) [1] | inhibition at 10 min, 30 μM [2] [%] |
| --- | --- | --- |
| Nc1ccc(S(=O)(=O)Nc2ccnn2-c2ccccc2)cc1 [sulfaphenazole, reference compound] | more than 90% |  |
| COc1ccc(CCN(C)CCCC(C#N)(c2ccc(OC)c(OC)c2)C(C)C)cc1OC (centres unmarked) [verapamil, reference compound] |  | 97 |
